The values that follow come from ChEMBL document CHEMBL1148788 (J Med Chem, 2007).

The structures appear in SMILES notation.

Assay [1] concerns the target T1, Neuronal acetylcholine receptor; alpha3/beta4 (Rattus norvegicus, UniProt P04757+P12392). The assay is described as follows: Displacement of [3H]epibatidine from recombinant rat alpha-3-beta-4 nAChr in HEK293 cell line. It is filed as cell-based. As to conditions: for pKi: hek293.
The target of assay [2] is Neuronal acetylcholine receptor; alpha4/beta2 (Rattus norvegicus, UniProt P09483+P12390). The assay is described as follows: Displacement of [3H]epibatidine from rat recombinant alpha-4-beta-2 nAChR in HEK293 cell line. It is filed as cell-based. As to conditions: for pKi: hek293; for Ki: read-out: Ki. (Loss of bound radioactivity is the signal in a displacement assay; it reports binding, not function.)

Assay [3] concerns the target T2, Neuronal acetylcholine receptor subunit alpha-7 (Homo sapiens, UniProt P36544). The assay is described as follows: Displacement of [3H]methyllycaconitine from human alpha-7 in tsA201 cells coexpressed with 5HT3A receptor. In kind it is cell-based.
Assay [4] has as its target T1, Neuronal acetylcholine receptor; alpha3/beta4. Briefly: Antagonist activity at rat alpha3beta4 nAChR expressed in HEK293 cells by FMP assay. It is filed as functional, cell-based, Homo sapiens. As to conditions: for IC50: read-out: IC50; for pIC50: hek293.
Assay [5] deals with Neuronal acetylcholine receptor; alpha4/beta4 (Rattus norvegicus, UniProt P09483+P12392). The assay is described as follows: Displacement of [3H]epibatidine from recombinant rat alpha-4-beta-4 nAChr in HEK293 cell line. It is filed as cell-based. Particulars: for pKi: hek293.
The target of assay [6] is T3, Glycine receptor subunit alpha-1 (Homo sapiens, UniProt P23415).
T3 sequence (P23415 whole entry): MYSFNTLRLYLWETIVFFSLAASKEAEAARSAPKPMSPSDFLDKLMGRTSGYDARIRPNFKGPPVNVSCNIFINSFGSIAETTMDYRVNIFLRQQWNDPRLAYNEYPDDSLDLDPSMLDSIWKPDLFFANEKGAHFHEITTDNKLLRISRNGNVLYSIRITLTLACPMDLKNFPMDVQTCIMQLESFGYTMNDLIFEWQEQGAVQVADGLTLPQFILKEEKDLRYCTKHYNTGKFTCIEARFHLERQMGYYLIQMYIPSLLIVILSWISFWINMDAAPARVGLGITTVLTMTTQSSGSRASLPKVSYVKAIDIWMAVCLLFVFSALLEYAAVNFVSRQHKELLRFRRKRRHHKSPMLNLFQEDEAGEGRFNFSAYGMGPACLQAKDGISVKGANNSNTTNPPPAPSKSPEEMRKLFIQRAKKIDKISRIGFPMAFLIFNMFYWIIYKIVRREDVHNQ
Briefly: Antagonist activity at human glycine alpha-1 receptor in HEK293 cells by FMP assay. It is filed as functional, cell-based. Particulars: for pIC50: hek293.

The target of assay [7] is T4, 5-hydroxytryptamine receptor 3A (Homo sapiens, UniProt P46098).
T4 sequence (P46098 whole entry): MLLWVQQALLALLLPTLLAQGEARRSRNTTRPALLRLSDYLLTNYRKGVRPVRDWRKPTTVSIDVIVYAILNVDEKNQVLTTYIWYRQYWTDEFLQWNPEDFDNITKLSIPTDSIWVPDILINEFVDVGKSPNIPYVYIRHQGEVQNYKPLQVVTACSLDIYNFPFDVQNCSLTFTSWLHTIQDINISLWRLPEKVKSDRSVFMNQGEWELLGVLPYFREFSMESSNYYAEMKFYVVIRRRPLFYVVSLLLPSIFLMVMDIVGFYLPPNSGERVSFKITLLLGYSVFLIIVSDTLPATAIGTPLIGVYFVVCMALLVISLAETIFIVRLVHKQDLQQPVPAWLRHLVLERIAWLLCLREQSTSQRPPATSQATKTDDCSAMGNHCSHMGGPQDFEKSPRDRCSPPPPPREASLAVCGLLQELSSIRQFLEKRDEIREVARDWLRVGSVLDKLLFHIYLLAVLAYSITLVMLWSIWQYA
Briefly: Displacement of [3H]GR65630 from human 5HT3A receptor in HEK293 cells. In kind it is cell-based. Particulars: for pKi: hek293.

Assay [8] has as its target T2, Neuronal acetylcholine receptor subunit alpha-7. Briefly: Antagonist activity at human alpha-7 nAChR in tsA201 cells coexpressed with Ric3 by FMP assay. In kind it is functional, cell-based.
In assay [9] the target is T4, 5-hydroxytryptamine receptor 3A. Briefly: Antagonist activity at human 5HT3A receptor expressed in HEK293 cells by FMP assay. In kind it is functional, cell-based. Particulars: for IC50: read-out: IC50.
Another assay in a line: cells. It is filed as functional, cell-based. Particulars: Homo sapiens, HEK293.
The target of assay [10] is T2, Neuronal acetylcholine receptor subunit alpha-7. The assay is described as follows: Displacement of [3H]methyllycaconitine from alpha7 nAChR in tsA201 cells co-expressed with Ric3. In kind it is cell-based.

T2 sequence (P36544 whole entry): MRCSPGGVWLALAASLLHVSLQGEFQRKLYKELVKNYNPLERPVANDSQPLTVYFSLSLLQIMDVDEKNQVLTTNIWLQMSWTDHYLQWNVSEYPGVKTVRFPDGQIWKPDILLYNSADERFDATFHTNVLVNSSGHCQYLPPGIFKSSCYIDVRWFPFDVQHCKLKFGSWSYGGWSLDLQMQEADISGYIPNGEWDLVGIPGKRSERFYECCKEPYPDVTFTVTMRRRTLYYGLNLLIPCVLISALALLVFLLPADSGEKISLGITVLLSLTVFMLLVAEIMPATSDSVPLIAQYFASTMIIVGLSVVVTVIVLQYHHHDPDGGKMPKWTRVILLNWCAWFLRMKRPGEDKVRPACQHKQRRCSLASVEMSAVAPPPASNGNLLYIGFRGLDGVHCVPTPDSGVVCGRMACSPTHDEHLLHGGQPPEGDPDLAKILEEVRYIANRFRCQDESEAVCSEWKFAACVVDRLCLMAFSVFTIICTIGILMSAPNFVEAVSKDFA
Chain of Neuronal acetylcholine receptor; alpha4/beta2 (P09483 whole entry): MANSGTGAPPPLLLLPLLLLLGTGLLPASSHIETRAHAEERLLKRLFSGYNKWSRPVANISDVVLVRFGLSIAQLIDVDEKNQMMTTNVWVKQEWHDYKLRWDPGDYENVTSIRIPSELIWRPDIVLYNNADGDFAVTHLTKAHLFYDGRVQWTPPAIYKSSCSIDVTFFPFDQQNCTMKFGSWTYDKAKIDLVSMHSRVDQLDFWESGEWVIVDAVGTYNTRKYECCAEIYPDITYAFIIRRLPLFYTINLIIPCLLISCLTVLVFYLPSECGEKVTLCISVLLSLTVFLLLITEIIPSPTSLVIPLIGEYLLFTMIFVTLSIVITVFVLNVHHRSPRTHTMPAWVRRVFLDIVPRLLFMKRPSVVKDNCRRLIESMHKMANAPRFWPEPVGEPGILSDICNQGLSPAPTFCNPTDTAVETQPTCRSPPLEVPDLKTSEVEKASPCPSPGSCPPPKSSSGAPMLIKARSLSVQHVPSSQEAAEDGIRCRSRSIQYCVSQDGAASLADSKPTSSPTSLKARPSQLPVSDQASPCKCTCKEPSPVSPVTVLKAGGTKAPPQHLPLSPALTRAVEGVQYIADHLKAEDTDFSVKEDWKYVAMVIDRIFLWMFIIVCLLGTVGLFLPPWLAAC
Chain of Neuronal acetylcholine receptor; alpha4/beta2 (P12390 whole entry): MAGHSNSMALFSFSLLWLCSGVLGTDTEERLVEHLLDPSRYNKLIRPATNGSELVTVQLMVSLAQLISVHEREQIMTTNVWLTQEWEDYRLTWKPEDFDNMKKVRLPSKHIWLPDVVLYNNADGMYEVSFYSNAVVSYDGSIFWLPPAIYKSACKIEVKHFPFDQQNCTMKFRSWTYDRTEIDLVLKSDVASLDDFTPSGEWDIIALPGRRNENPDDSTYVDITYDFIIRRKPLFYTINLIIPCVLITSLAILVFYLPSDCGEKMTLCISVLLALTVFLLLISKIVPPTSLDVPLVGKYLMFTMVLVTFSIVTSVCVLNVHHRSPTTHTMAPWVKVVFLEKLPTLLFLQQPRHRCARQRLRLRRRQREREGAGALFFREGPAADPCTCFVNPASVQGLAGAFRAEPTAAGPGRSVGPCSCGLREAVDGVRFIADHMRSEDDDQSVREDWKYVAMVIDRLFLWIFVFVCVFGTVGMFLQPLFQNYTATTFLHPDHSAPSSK
Chain of Neuronal acetylcholine receptor; alpha4/beta4 (P09483 whole entry): as the sequence (P09483 whole entry) above
Chain of Neuronal acetylcholine receptor; alpha4/beta4 (P12392 whole entry): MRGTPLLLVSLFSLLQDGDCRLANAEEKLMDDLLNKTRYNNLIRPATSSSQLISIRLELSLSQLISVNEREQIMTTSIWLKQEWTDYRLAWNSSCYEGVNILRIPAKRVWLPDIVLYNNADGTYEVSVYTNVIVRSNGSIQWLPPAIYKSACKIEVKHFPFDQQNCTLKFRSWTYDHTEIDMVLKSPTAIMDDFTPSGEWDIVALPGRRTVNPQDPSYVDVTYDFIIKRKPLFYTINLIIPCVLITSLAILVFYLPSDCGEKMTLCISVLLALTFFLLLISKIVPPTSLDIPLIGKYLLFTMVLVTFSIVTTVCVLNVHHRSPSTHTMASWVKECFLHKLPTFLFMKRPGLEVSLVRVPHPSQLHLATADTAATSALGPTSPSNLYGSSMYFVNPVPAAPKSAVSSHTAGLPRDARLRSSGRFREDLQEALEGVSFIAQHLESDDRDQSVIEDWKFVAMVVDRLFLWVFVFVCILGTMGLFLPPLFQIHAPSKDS
T1 sequence (P04757 whole entry): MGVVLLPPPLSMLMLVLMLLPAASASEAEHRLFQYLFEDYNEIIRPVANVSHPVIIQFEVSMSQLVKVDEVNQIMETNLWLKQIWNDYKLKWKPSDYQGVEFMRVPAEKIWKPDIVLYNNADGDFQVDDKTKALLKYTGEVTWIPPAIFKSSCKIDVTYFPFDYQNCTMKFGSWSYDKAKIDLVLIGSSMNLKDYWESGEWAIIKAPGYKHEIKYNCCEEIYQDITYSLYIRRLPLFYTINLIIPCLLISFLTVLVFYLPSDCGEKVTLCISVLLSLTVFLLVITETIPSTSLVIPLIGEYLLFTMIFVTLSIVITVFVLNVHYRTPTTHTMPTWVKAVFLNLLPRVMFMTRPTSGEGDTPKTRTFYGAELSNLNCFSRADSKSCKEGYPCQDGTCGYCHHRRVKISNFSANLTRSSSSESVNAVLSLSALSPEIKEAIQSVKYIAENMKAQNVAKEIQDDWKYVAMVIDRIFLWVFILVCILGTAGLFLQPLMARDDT
T1 sequence (P12392 whole entry): as the sequence (P12392 whole entry) above

For the compound `OC/C=C1/CN2CC[C@H]3[C@@H]2C[C@@H]1/C1=C/N2c4ccccc4[C@@]45CCN6CC7=CCO[C@H]([C@@H]([C@H]24)[C@H]7C[C@H]65)N(c2ccccc2)[C@@H]13`, the Ki in assay [1] was 30 µM; in assay [2] it was > 100 µM; in assay [3] (read-out: Ki), 1.2 µM; in assay [3] (read-out: pKi (converted)), 1.26 µM; in assay [5] it was > 100 µM; in assay [7], 1.9 µM. Also, the Ki was 1.7 µM in [10] (read-out: Ki) and 1.58 µM in assay [10] (read-out: pKi (converted)). Moreover, the pKi in [2] and in [5] was < 4 throughout. The IC50 is 16 µM in assay [4]; > 100 µM in [6]; 1.5 µM in [8] (read-out: IC50); 1.51 µM in assay [8] (read-out: pIC50 (converted)); 2.5 µM in assay [9]; > 100 µM in “cells” (read-out: IC50). Further, the IC50 in the assay “cells” (read-out: pIC50 (converted)) is > 100 µM. In assay [6], the pIC50 is < 4.
Take `C/C=C/C[N+]12CC[C@@H]3[C@@H]4[C@@H]5[C@@H](OCC=C(C1)[C@@H]5C[C@@H]32)N1c2ccccc2[C@@]23CC[N+]5(C/C=C/C)CC6=CCO[C@H]([C@@H]([C@H]12)[C@H]6C[C@@H]35)N4c1ccccc1.[Br-].[Br-]` (stereo not given in full): the Ki in assay [1] was 100 µM; in assay [2], > 100 µM; in assay [3] (read-out: Ki), 0.23 µM; in assay [3] (read-out: pKi (converted)), 0.251 µM; in [5] it was > 100 µM; in assay [7] it was 15 µM. Also, the Ki in assay [10] (read-out: Ki) turned out to be 0.1 µM. Also, the pKi in assay [2] is < 4; in assay [5] it was < 4; in assay [10] (tsa201) it was 7. Besides, the IC50 in assay [4] is 100 µM; in assay [6] it was > 100 µM; in assay [8] (read-out: IC50), 1.1 µM; in assay [8] (read-out: pIC50 (converted)) it was 1.15 µM; in assay [9], 100 µM; in “cells” (read-out: IC50), > 100 µM. For the same compound, the IC50 in “cells” (read-out: pIC50 (converted)) is > 100 µM. The pIC50 in assay [6] is given as < 4.
For `C[N+](C)(Cc1ccc([N+](=O)[O-])cc1)Cc1c2n(c3ccccc13)Cc1c(C[N+](C)(C)Cc3ccc([N+](=O)[O-])cc3)c3ccccc3n1C2.[Br-].[Br-]`, the Ki is > 100 µM in [1]; > 100 µM in assay [2]; 2.1 µM in assay [3] (read-out: Ki); 2 µM in assay [3] (read-out: pKi (converted)); > 100 µM in assay [5]; > 100 µM in [7]. Further, the Ki in assay [10] (read-out: Ki) is 3.9 µM; in assay [10] (read-out: pKi (converted)), 3.98 µM. The pKi in assay [1], in assay [2], in assay [5] and in assay [7] was < 4 each time. Moreover, the pIC50 in assay [4] and in assay [6] was < 4 each time. The IC50 in assay [4] was > 100 µM; in assay [6], > 100 µM; in [8] (read-out: IC50), 30 µM; in [8] (read-out: pIC50 (converted)) it was 100 µM; in assay [9], 30 µM; in the assay “cells” (read-out: IC50), > 100 µM. For the same compound, in the assay “cells” (read-out: pIC50 (converted)), the IC50 was > 100 µM.
For `Brc1ccc(C[N+]23CC[C@@H]4[C@@H]5[C@@H]6[C@@H](OCC=C(C2)[C@@H]6C[C@@H]43)N2c3ccccc3[C@@]34CC[N+]6(Cc7ccc(Br)cc7)CC7=CCO[C@H]([C@@H]([C@H]23)[C@H]7C[C@@H]46)N5c2ccccc2)cc1.[Br-].[Br-]` (stereo not given in full), the Ki in assay [1] is > 100 µM; in assay [2] it was > 100 µM; in assay [3] (read-out: Ki), 0.26 µM; in [3] (read-out: pKi (converted)) it was 0.251 µM; in assay [5], > 100 µM; in assay [7], 5.7 µM. For the same compound, the Ki in assay [10] (read-out: Ki) is 0.64 µM; in assay [10] (read-out: pKi (converted)), 0.631 µM. Further, the pKi in assay [1], in assay [2] and in assay [5] was < 4 each time. Besides, the pIC50 in assay [4] and in [6] was < 4 throughout. For the same compound, the IC50 is > 100 µM in assay [4]; > 100 µM in [6]; 10 µM in assay [8] (read-out: IC50); 10.5 µM in assay [8] (read-out: pIC50 (converted)); 30 µM in [9]; > 100 µM in the assay “cells” (read-out: IC50). In “cells” (read-out: pIC50 (converted)), the IC50 is > 100 µM.
`CC(=O)OCC[N+]12CC[C@@H]3[C@@H]4[C@@H]5[C@@H](OCC=C(C1)[C@@H]5C[C@@H]32)N1c2ccccc2[C@@]23CC[N+]5(CCOC(C)=O)CC6=CCO[C@H]([C@@H]([C@H]12)[C@H]6C[C@@H]35)N4c1ccccc1.[Br-].[Br-]` (stereo not given in full): the Ki in [1] is > 100 µM; in [2], > 100 µM; in assay [3] (read-out: Ki), 0.28 µM; in assay [3] (read-out: pKi (converted)) it was 0.251 µM; in assay [5] it was > 100 µM; in [7], > 100 µM. Further, the values for the Ki in [10] (read-out: Ki) and in assay [10] (read-out: pKi (converted)) were 0.31 µM and 0.316 µM, respectively. The pKi in assay [1], in [2], in assay [5] and in assay [7] was < 4 throughout. Besides, the pIC50 in assay [4], in assay [6] and in assay [9] (hek293) was < 4 each time. The IC50 in [4] is > 100 µM; in [6] it was > 100 µM; in assay [8] (read-out: IC50), 1.6 µM; in [8] (read-out: pIC50 (converted)), 1.62 µM; in [9], > 100 µM; in the assay “cells” (read-out: IC50), > 100 µM. The IC50 in the assay “cells” (read-out: pIC50 (converted)) is > 100 µM.
With `C1=C2C[N+]3(Cc4ccc5ccccc5c4)CC[C@@H]4[C@@H]5[C@H]([C@@H](OC1)N1c6ccccc6[C@@]67CC[N+]8(Cc9ccc%10ccccc%10c9)CC9=CCO[C@H]([C@@H]([C@H]16)[C@H]9C[C@@H]78)N5c1ccccc1)[C@H]2C[C@@H]43` (stereo not given in full), the Ki in assay [3] (read-out: Ki) is 0.36 µM; in assay [3] (read-out: pKi (converted)) it was 0.316 µM; in assay [10] (read-out: Ki), 0.71 µM; in assay [10] (read-out: pKi (converted)), 0.631 µM.
`O=[N+]([O-])c1ccc(C[N+]23CCC4[C@@H]5/C(=C\N6c7ccccc7[C@@]78CC[N+]9(Cc%10ccc([N+](=O)[O-])cc%10)CC%10=CCO[C@H]([C@@H]([C@H]67)[C@H]%10C[C@@H]89)N5c5ccccc5)[C@@H](C[C@@H]42)/C(=C\CO)C3)cc1.[Br-].[Br-]` (stereo not given in full): the Ki in [1] was > 100 µM; in [2] it was > 100 µM; in assay [3] (read-out: Ki), 0.11 µM; in assay [3] (read-out: pKi (converted)), 0.126 µM; in assay [5] it was > 100 µM; in assay [7], 100 µM. For the same compound, the Ki was 0.098 µM in assay [10] (read-out: Ki) and 0.1 µM in assay [10] (read-out: pKi (converted)). Further, the pKi in [1], in [2] and in assay [5] was < 4 in each case. For the same compound, the pIC50 in [4] and in assay [6] was < 4 in each case. For the same compound, the IC50 in assay [4] is > 100 µM; in assay [6], > 100 µM; in [8] (read-out: IC50) it was 2.5 µM; in assay [8] (read-out: pIC50 (converted)), 2.45 µM; in assay [9], 30 µM; in the assay “cells” (read-out: IC50), > 100 µM. Also, in the assay “cells” (read-out: pIC50 (converted)), the IC50 was > 100 µM.
`CN(C)Cc1c2n(c3ccccc13)Cc1c(CN(C)C)c3ccccc3n1C2`: the Ki in [1] is > 100 µM; in assay [2], > 100 µM; in assay [3] (read-out: Ki), 19 µM; in [3] (read-out: pKi (converted)), 20 µM; in [5], > 100 µM; in assay [7], > 100 µM. The Ki in assay [10] (read-out: Ki) is 5.4 µM; in assay [10] (read-out: pKi (converted)), 5.01 µM. Further, the pKi in [1], in [2], in assay [5] and in assay [7] was < 4 in each case.

By pKi is commonly meant the negative decadic logarithm of the Ki, by convention in mol/L. The term pIC50 denotes −log10 of the IC50, conventionally taken in molar units. Lower therefore signals a high IC50.
